SMILES strings stand for the structures. Like-named read-outs stand apart in the source and are kept apart here.

In one series the test system is wild type HIV-1. In words: Spread assay: inhibition of acute HIV-1 infection of T-lymphoid cells (WT). In kind it is cell-based. The note with it: Human immunodeficiency virus 1, T-lymphoid; wild type HIV-1, 10% FBS; read-out: Spread (WT) CIC95 (10% FBS). The procedure: (§1) Assays for the inhibition of acute HIV-1 infection of T-lymphoid cells (alternatively referred to herein as the “spread assay”) were conducted in accordance with Vacca, J. P. et al., Proc. Natl. Acad. Sci. USA 1994, 91: 4096. The assays tested for inhibition of wild type HIV-1 and of HIV strains containing the Y181C or K103N mutation. […] Table C also reports the CIC95 values of certain of the title compounds of Examples 1-25 obtained in the assays employing the Y181C mutant strain and the K103N mutant strain.

The target of series [1] is T1, HIV reverse transcriptase with the Y181C mutation (Human immunodeficiency virus type 1 group M subtype B, UniProt P04585, Y768C).
T1 construct: made in house
Kind of series: ECL assay for inhibition of mutant HIV reverse transcriptase (Y181C). It counts as biochemical, HIV-1. As for the experimental part:
(§2) 100 μL reaction mixtures were initiated with a combination of primer-template substrate (10 nM final concentration) and dNTPs (0.6 μM dNTPs, 1.25 μM BrdUTP). The heterodimeric nucleic acid substrate was generated by annealing the DNA primer pD500 (described in Shaw-Reid et al., J. Biol. Chem., 278: 2777-2780; obtained from Integrated DNA Technologies) to t500, a 500 nucleotide RNA template created by in vitro transcription (see Shaw-Reid et al., J. Biol. Chem., 278: 2777-2780). After 1 hour incubation at 37° C., reactions were quenched by 10 μL of 1 N NaOH. Microtiter plates were incubated for an additional 30 minutes at room temperature and then neutralized with 10 μL of 1 N HCl. A mixture of detection buffer containing ruthenylated anti-BrdU antibody and streptavidin coated magnetic beads were added to the plate and incubated at room temperature for 1.5 hours prior to quantification via electrochemiluminescence instrument.
(§3) Analogous assays were conducted substituting mutant HIV strains to determine the […] inhibition of compounds of the present invention against mutant HIV reverse transcriptase. In one strain the reverse transcriptase has the Y181C mutation and in the other strain the reverse transcriptase has the K103N mutation. The mutations were generated with the […] site-directed mutagenesis kit (Stratagene).

For series [2], the target named is T2, HIV reverse transcriptase with the K103N mutation (Human immunodeficiency virus type 1 group M subtype B, UniProt P04585, K690N).
T2 construct: made in house
Kind of series: ECL assay for inhibition of mutant HIV reverse transcriptase (K103N). It counts as biochemical, HIV-1. As for the experimental part: as §2, §3

Series [3] has as its system HIV strain containing the K103N mutation. Kind of series: Spread assay: inhibition of acute HIV-1 infection of T-lymphoid cells (K103N). It counts as cell-based. The note with it: Human immunodeficiency virus 1, T-lymphoid, read-out: Spread (K103N) CIC95 (10% FBS). The procedure: as §1
The subject of series [4] is HIV strain containing the Y181C mutation. In words: Spread assay: inhibition of acute HIV-1 infection of T-lymphoid cells (Y181C). It counts as cell-based. The note with it: Human immunodeficiency virus 1, T-lymphoid, read-out: Spread (Y181C) CIC95 (10% FBS). As for the experimental part: as §1
In series [5] the target is HIV-1 RT enzyme (wild-type) (Human immunodeficiency virus type 1 group M subtype B, UniProt P04585). In words: ECL assay for inhibition of HIV reverse transcriptase (WT). It counts as biochemical. The procedure:
as §2

The next series concerns T-lymphoid cells. In kind it is cell-based. As for the experimental part: Cytotoxicity was determined by microscopic examination of the cells in each well in the spread assay, wherein a trained analyst observed each culture for any of the following morphological changes as compared to the control cultures: pH imbalance, cell abnormality, cytostatic, cytopathic, or crystallization (i.e., the compound is not soluble or forms crystals in the well). The toxicity value assigned to a given compound is the lowest concentration of the compound at which one of the above changes is observed.

Where [6] appears, read: Y181C mutant RT, read-out: ECL Assay (Y181C) IC50.
Setting [7] is: K103N mutant RT, read-out: ECL Assay (K103N) IC50.
[8] abbreviates: wild-type HIV-1 RT, read-out: ECL Assay (WT) IC50.

For orientation: IC50 means the concentration that gives 50% inhibition. `N#Cc1cc(C#N)cc(Oc2c(C(F)(F)F)ccn(Cc3n[nH]c4ncccc34)c2=O)c1` [Compound 18-4, 5-{[2-oxo-1-(1H-pyrazolo[3,4-b]pyridine-3-ylmethyl)-4-(trifluoromethyl)-1,2-dihydropyridin-3-yl]oxy}isophthalonitrile]: the IC95 was 7 nM in the series on wild type HIV-1, 6 nM in series [3] and 8 nM in series [4]. Also, the IC50 in series [1] (setting [6]) worked out at 4.1 nM; in series [2] (setting [7]), 5.1 nM; in series [5] (setting [8]), 3.4 nM. The “Cytotoxicity: no cytotoxicity at concentrations up to” value in the series on T-lymphoid cells is above 833 nM.

As for `N#Cc1cc(Cl)cc(Oc2nc(NCc3n[nH]c4ncccc34)c(Cl)cc2F)c1` [Compound 1-7, 3-chloro-5-({5-chloro-3-fluoro-6-[(1H-pyrazolo[3,4-b]pyridin-3-ylmethyl)amino]pyridin-2-yl}oxy)benzonitrile], the results for the IC95 (in the series with wild type HIV-1; in series [3]; in series [4]) were 3 nM, 94 nM and 13 nM, respectively. Further, the IC50 in series [1] (setting [6]) was 0.4 nM; in series [2] (setting [7]), 1.5 nM; in series [5] (setting [8]), 0.3 nM. Further, in the series on T-lymphoid cells, the “Cytotoxicity: no cytotoxicity at concentrations up to” value is recorded as above 833 nM.

Consider `N#Cc1cc(Cl)cc(Oc2c(Cl)c(CCc3n[nH]c4ncccc34)[nH]c(=O)c2Cl)c1` [Compound 5-6, 3-chloro-5-({3,5-dichloro-2-oxo-6-[2-(1H-pyrazolo[3,4-b]pyridin-3-yl)ethyl]-1,2-dihydropyridin-4-yl}oxy)benzonitrile], for which the IC95 in the series on wild type HIV-1 is 42 nM; in series [3] it was 367 nM. Also, the IC50 is 1.6 nM in series [1] (setting [6]), 1.8 nM in series [2] (setting [7]) and 1.2 nM in series [5] (setting [8]). Besides, the “Cytotoxicity: no cytotoxicity at concentrations of up to” value with T-lymphoid cells was above 8.5 µM.

For the compound `N#Cc1cc(Cl)cc(Oc2cc(NCc3n[nH]c4ncccc34)[nH]c(=O)c2Cl)c1` [Compound 8-5, 3-chloro-5-({3-chloro-2-oxo-6-[(1H-pyrazolo[3,4-b]pyridin-3-ylmethyl)amino]-1,2-dihydropyridin-4-yl}oxy)benzonitrile], the IC95 worked out at 34 nM with wild type HIV-1 and 833 nM in series [3]. Also, the IC50 came out at 5.7 nM in series [1] (setting [6]), 11 nM in series [2] (setting [7]) and 0.9 nM in series [5] (setting [8]). In addition, the “Cytotoxicity: no cytotoxicity at concentrations of up to” value in the series with T-lymphoid cells was above 8.5 µM.

As for `Cc1ccn(Cc2n[nH]c3ncccc23)c(=O)c1Oc1cc(Cl)cc(C#N)c1` [Compound 11-7, 3-chloro-5-{[4-methyl-2-oxo-1-(1H-pyrazolo[3,4-b]pyridin-3-ylmethyl)-1,2-dihydropyridin-3-yl]oxy}benzonitrile], the IC95 in the series with wild type HIV-1 was found to be 7 nM; in series [3] it was 14 nM. Further, the IC50 in series [1] (setting [6]) was found to be 3.2 nM; in series [2] (setting [7]), 3.7 nM; in series [5] (setting [8]), 2.5 nM. The “Cytotoxicity: no cytotoxicity at concentrations up to” value in the series on T-lymphoid cells is above 833 nM.

`N#Cc1cc(Cl)cc(Oc2cc(Cn3c(=O)[nH]c4ccccc43)[nH]c(=O)c2Cl)c1` [Compound 9-8, 3-chloro-5-({3-chloro-2-oxo-6-[(2-oxo-2,3-dihydro-1H-benzimidazol-1-yl)methyl]-1,2-dihydropyridin-4-yl}oxy)benzonitrile]: the IC95 in the series on wild type HIV-1 turned out to be 638 nM. In addition, the IC50 in series [1] (setting [6]) was determined as 6.3 nM; in series [2] (setting [7]), 13 nM; in series [5] (setting [8]) it was 4.8 nM. The “Cytotoxicity: no cytotoxicity at concentrations of up to” value in the series on T-lymphoid cells is above 8.5 µM.

As to `Cc1ccn(CCc2n[nH]c3ncccc23)c(=O)c1Oc1cc(Cl)cc(C#N)c1` [Compound 12-7, 3-chloro-5-({4-methyl-2-oxo-1-[2-(1H-pyrazolo[3,4-b]pyridin-3-yl)ethyl]-1,2-dihydropyridin-3-yl}oxy)benzonitrile], the IC95 with wild type HIV-1 was 248 nM; in series [3], 447 nM. The values for the IC50 in series [1] (setting [6]), in series [2] (setting [7]) and in series [5] (setting [8]) were 51 nM, 58 nM and 25 nM, respectively. For the same compound, in the series with T-lymphoid cells, the “Cytotoxicity: no cytotoxicity at concentrations up to” value was above 833 nM.

Turning to `N#Cc1cc(Cl)cc(Oc2cc(CCc3n[nH]c4ncccc34)ncc2Cl)c1` [Compound 6-5, 3-chloro-5-({5-chloro-2-[2-(1H-pyrazolo[3,4-b]pyridin-3-yl)ethyl]pyridin-4-yl}oxy)benzonitrile], the IC95 came to 103 nM in the series on wild type HIV-1 and 361 nM in series [3]. Besides, the IC50 in series [1] (setting [6]) amounted to 270 nM; in series [2] (setting [7]), 87 nM; in series [5] (setting [8]), 25 nM. The “Cytotoxicity: no cytotoxicity at concentrations of up to” value in the series on T-lymphoid cells was above 8.5 µM.

For `N#Cc1cc(Cl)cc(Oc2c(Cl)ccn(Cc3n[nH]c4ncccc34)c2=O)c1` [Compound 21-8, 3-chloro-5-{[4-chloro-2-oxo-1-(1H-pyrazolo[3,4-b]pyridin-3-ylmethyl)-1,2-dihydropyridin-3-yl]oxy}benzonitrile], the IC95 in the series on wild type HIV-1 was found to be 3 nM; in series [4], 8 nM. Also, the IC50 was 1 nM in series [1] (setting [6]), 1.4 nM in series [2] (setting [7]) and 0.8 nM in series [5] (setting [8]). In the series with T-lymphoid cells, the “Cytotoxicity: no cytotoxicity at concentrations up to” value is on record as above 833 nM.

For the compound `CN(Cc1ccccc1Cl)C(=O)Cn1ccc(C(F)(F)F)c(Oc2cc(Cl)cc(C#N)c2)c1=O` [Compound 14, N-(2-chlorobenzyl)-2-[3-(3-chloro-5-cyanophenoxy)-2-oxo-4-(trifluoromethyl)pyridin-1(2H)-yl]-N-methylacetamide], the IC95 came to 330 nM in the series on wild type HIV-1 and 284 nM in series [3]. Moreover, the IC50 in series [1] (setting [6]) was 290 nM; in series [2] (setting [7]) it was 440 nM; in series [5] (setting [8]) it was 300 nM. Further, the “Cytotoxicity: no cytotoxicity at concentrations up to” value in the series with T-lymphoid cells is on record as above 833 nM.

For the compound `N#Cc1cc(Cl)cc(Oc2cc(C(O)c3n[nH]c4ncccc34)[nH]c(=O)c2Cl)c1` (centres unmarked) [Compound 25-2], the IC95 stood at 28 nM in the series with wild type HIV-1 and 180 nM in series [3]. Besides, the IC50 turned out to be 4.7 nM in series [1], 13 nM in series [2] and 3.2 nM in series [5].

In the case of `CCOC(=O)c1cc(Cl)cc(Oc2c(Cl)c(CCc3n[nH]c4ncccc34)[nH]c(=O)c2Cl)c1` [Compound 5-7, ethyl 3-chloro-5-({3,5-dichloro-2-oxo-6-[2-(1H-pyrazolo[3,4-b]pyridin-3-yl)ethyl]-1,2-dihydropyridin-4-yl}oxy)benzoate], in the series with wild type HIV-1, the IC95 came to 1220 nM. For the same compound, the IC50 stood at 49 nM in series [1] (setting [6]), 52 nM in series [2] (setting [7]) and 3.5 nM in series [5] (setting [8]). Moreover, in the series with T-lymphoid cells, the “Cytotoxicity: no cytotoxicity at concentrations of up to” value was above 8.5 µM.

For the compound `N#Cc1cc(Cl)cc(Oc2c(C(F)(F)F)ccn(CC(=O)Nc3ccc(S(N)(=O)=O)cc3Cl)c2=O)c1` [Compound 15, N-[4-(aminosulfonyl)-2-chlorophenyl]-2-[3-(3-chloro-5-cyanophenoxy)-2-oxo-4-(trifluoromethyl)pyridin-1 (2H)-yl]acetamide], the IC95 was 10 nM with wild type HIV-1 and 6 nM in series [3]. Also, the IC50 is 3.9 nM in series [1] (setting [6]), 4.8 nM in series [2] (setting [7]) and 3.3 nM in series [5] (setting [8]). In addition, the “Cytotoxicity: no cytotoxicity at concentrations up to” value with T-lymphoid cells is on record as above 833 nM.

Regarding `Cc1nc(OCc2n[nH]c3ncccc23)c(Cl)c(Oc2cc(Cl)cc(C#N)c2)c1Cl` [Compound 7-1, 3-chloro-5-{[3,5-dichloro-2-methyl-6-(1H-pyrazolo[3,4-b]pyridin-3-ylmethoxy)pyridin-4-yl]oxy}benzonitrile], the IC95 in the series with wild type HIV-1 came out at 100 nM; in series [3], 1700 nM. Further, the IC50 turned out to be 3.5 nM in series [1] (setting [6]), 27 nM in series [2] (setting [7]) and 1.3 nM in series [5] (setting [8]). In addition, the “Cytotoxicity: no cytotoxicity at concentrations of up to” value in the series on T-lymphoid cells was above 8.5 µM.

The values above are taken from US8404856B2, “Non-nucleoside reverse transcriptase inhibitors” (Merck Sharp & Dohme Corp., priority 2007, dated 2013).
